Test results taken from patent publication EP0645451A1, “Heparin binding site structural analogues of fibroblast growth factors” (AMERICAN CYANAMID COMPANY, priority 1993, dated 1995).

Key:
Test in all cases: Fluorescence quenching titration, thermodynamic dissociation constant (KD)
[1] = biological target: T1, human FGF-2 mutant gln¹³⁸FGF-2 (lysine-138 replaced by glutamine) (Homo sapiens, UniProt P09038, A136E/K271Q/S138E); format: binding; conditions: tryptophan fluorescence quenching, 10 mM Tris-HCl, pH 7.4, 2 mM dithiothreitol, read-out: KD BCDS
T1 construct: a synthetic gene encoding the 155 amino acid form of human FGF-2; made in house; host or cells: E. coli BL21 plys S
T1 sequence (P09038 134-288 A136E/S138E/K271Q): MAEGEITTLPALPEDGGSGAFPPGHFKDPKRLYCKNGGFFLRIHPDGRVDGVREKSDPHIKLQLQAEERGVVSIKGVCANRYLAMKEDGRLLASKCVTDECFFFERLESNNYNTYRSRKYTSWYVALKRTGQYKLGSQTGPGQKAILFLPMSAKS
Experimental: (§1) FGF-2 contains a single tryptophan residue at position 123. […] Therefore, the fluorescence properties of FGF-2 and FGF-2 mutants in the presence and absence of heparin and a heparin mimic, β-cyclodextran tetradecasulfate (BCDS) are evaluated in this example.
(§2) Fluorescence titration measurements are conducted in a Perkin-Elmer LS-5 fluorospectrometer using excitation and emission wavelengths of 290 nm and 350 nm, respectively. Two milliliters of FGF solution in 10 mM Tris-HCl, pH 7.4, containing 2 mM of dithiothreitol are placed in a cuvette. […] Concentrations of FGF-2 and gln^128,138FGF-2 are 370 nM and 280 nM, respectively. […] An equivalent tryptophan residue, Trp122, exists in acidic FGF (FGF-1), for which similar fluorescence quenching is obtained.
(§3) The thermodynamic dissociation constant (KD) is obtained from plots of fluorescence intensity versus ligand concentration. The fluorescence intensity data are fitted by non-linear regression by using equation 1 below, where FO is observed fluorescence intensity, FI is initial intensity, Δ F is the difference between final and the initial fluorescence intensities, Ct is the total FGF protein concentration, KD is the thermodynamic dissociation constant, and Lt is the total heparin concentration. It is assumed in equation 1 that the stoichiometry of FGF and heparin in the complex is 1:1. A graphic software Kaleidagraph is used for handling data. [formula] However, in the fluorescence titration experiments the titration curves shown in Figure 1 cannot be fitted directly using equation 1. […] Since the heparin preparation used here is composed of an average of 20 sulfated monosaccharide units per chain, it is likely that more than one FGF molecule is bound per oligosaccharide chain. […] Moreover, it is reasonable to assume that, in the absence of any data to indicate otherwise, the binding sites on heparin are independent and the binding affinities are similar. […] Under this assumption, the effective concentration of the ligand needs to be adjusted by the multiplication of the actual concentrations by the number of possible binding sites. If n is the average number of FGF molecules bound per oligosaccharide, then equation 1 can be modified to give [formula] in which the effective concentration of the ligand is increased by n times.
(§4) Equation 2 is used to fit the data shown in Figure 1 and the values of the two variables, KD and n, are determined by non-linear regression of at least three titration curves for each molecule. An average of four (n = 4) FGF-2 molecules interacting with heparin is obtained. Four binding sites on each heparin molecule are assumed for mutant gln^128,138FGF-2. Since the molecular weight of heparin used in the experiments is about 5000, which has an average of 20 monosaccharide units, about 4 to 6 monosaccharide units may interact with each FGF molecule. Two to four FGF molecules can bind to one BCDS (which has a calculated molecular weight of 2226). This estimate is in good agreement with that reported by Mach, et al. (Biochemistry 32: 5480-5489 (1993)) of a stoichiometry of 1:4-6 determined by a variety of different approaches including light scattering and analytical ultracentrifugation analyses.
(§5) Table I presents the thermodynamic dissociation constants obtained from fluorescence quenching experiments for the wild-type FGF and the mutants using heparin or BCDS.

[2] = biological target: T2, human FGF-2 mutant gln^128,138FGF-2 (lysine-128 and lysine-138 replaced by glutamine) (Homo sapiens, UniProt P09038, A136E/K261Q/K271Q/S138E); format: binding; conditions: tryptophan fluorescence quenching, 10 mM Tris-HCl, pH 7.4, 2 mM dithiothreitol, read-out: KD BCDS
T2 construct: a synthetic gene encoding the 155 amino acid form of human FGF-2; made in house; host or cells: E. coli BL21 plys S
T2 sequence (P09038 134-288 A136E/S138E/K261Q/K271Q): as the sequence (P09038 134-288 A136E/S138E/K271Q) above, with K128Q counted along it
Experimental: as §1, §2, §3, §4, §5

[3] = biological target: T3, human FGF-2 mutant gln^129,134FGF-2 (arginine-129 and lysine-134 replaced by glutamine) (Homo sapiens, UniProt P09038, A136E/K267Q/R262Q/S138E); format: binding; conditions: tryptophan fluorescence quenching, 10 mM Tris-HCl, pH 7.4, 2 mM dithiothreitol, read-out: KD BCDS
T3 construct: a synthetic gene encoding the 155 amino acid form of human FGF-2; made in house; host or cells: E. coli BL21 plys S
T3 sequence (P09038 134-288 A136E/S138E/R262Q/K267Q): as the sequence (P09038 134-288 A136E/S138E/K271Q) above, with R129Q, K134Q, Q138K counted along it
Experimental: as §1, §2, §3, §4, §5

[4] = biological target: T4, human FGF-2 mutant gln¹²⁹FGF-2 (arginine-129 replaced by glutamine) (Homo sapiens, UniProt P09038, A136E/R262Q/S138E); format: binding; conditions: tryptophan fluorescence quenching, 10 mM Tris-HCl, pH 7.4, 2 mM dithiothreitol, read-out: KD BCDS
T4 construct: a synthetic gene encoding the 155 amino acid form of human FGF-2; made in house; host or cells: E. coli BL21 plys S
T4 sequence (P09038 134-288 A136E/S138E/R262Q): as the sequence (P09038 134-288 A136E/S138E/K271Q) above, with R129Q, Q138K counted along it
Experimental: as §1, §2, §3, §4, §5

[5] = biological target: T5, human FGF-2, wild-type (recombinant glu^3,5FGF-2) (Homo sapiens, UniProt P09038, A136E/S138E); format: binding; conditions: wild-type FGF-2; tryptophan fluorescence quenching, 10 mM Tris-HCl, pH 7.4, 2 mM dithiothreitol; read-out: KD BCDS
T5 construct: a synthetic gene encoding the 155 amino acid form of human FGF-2; made in house; host or cells: E. coli BL21 plys S (stated for the mutants; inferred for the wild type)
T5 sequence (P09038 134-288 A136E/S138E): as the sequence (P09038 134-288 A136E/S138E/K271Q) above, with Q138K counted along it
Experimental: as §1, §2, §3, §4, §5

[6] = biological target: T6, human FGF-2 mutant gln¹²⁸FGF-2 (lysine-128 replaced by glutamine) (Homo sapiens, UniProt P09038, A136E/K261Q/S138E); format: binding; conditions: tryptophan fluorescence quenching, 10 mM Tris-HCl, pH 7.4, 2 mM dithiothreitol, read-out: KD BCDS
T6 construct: a synthetic gene encoding the 155 amino acid form of human FGF-2; made in house; host or cells: E. coli BL21 plys S
T6 sequence (P09038 134-288 A136E/S138E/K261Q): as the sequence (P09038 134-288 A136E/S138E/K271Q) above, with K128Q, Q138K counted along it
Experimental: as §1, §2, §3, §4, §5

[7] = biological target: T7, human FGF-2 mutant gln¹³⁴FGF-2 (lysine-134 replaced by glutamine) (Homo sapiens, UniProt P09038, A136E/K267Q/S138E); format: binding; conditions: tryptophan fluorescence quenching, 10 mM Tris-HCl, pH 7.4, 2 mM dithiothreitol, read-out: KD BCDS
T7 construct: a synthetic gene encoding the 155 amino acid form of human FGF-2; made in house; host or cells: E. coli BL21 plys S
T7 sequence (P09038 134-288 A136E/S138E/K267Q): as the sequence (P09038 134-288 A136E/S138E/K271Q) above, with K134Q, Q138K counted along it
Experimental: as §1, §2, §3, §4, §5

[8] = biological target: FGF-1 (acidic FGF) (Homo sapiens, UniProt P05230); conditions: tryptophan fluorescence quenching, 10 mM Tris-HCl, pH 7.4, 2 mM dithiothreitol, fitted with n binding sites per ligand, read-out: KD BCDS
Chain of FGF-1 (acidic FGF) (P05230 whole entry, species assumed): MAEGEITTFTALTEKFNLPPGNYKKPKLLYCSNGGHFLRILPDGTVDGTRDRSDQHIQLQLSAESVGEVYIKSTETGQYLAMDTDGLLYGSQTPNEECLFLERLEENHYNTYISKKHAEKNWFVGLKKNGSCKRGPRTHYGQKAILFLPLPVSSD
Experimental: as §1, §2
The thermodynamic dissociation constant (KD) is obtained from plots of fluorescence intensity versus ligand concentration. The fluorescence intensity data are fitted by non-linear regression by using equation 1 below, where FO is observed fluorescence intensity, FI is initial intensity, Δ F is the difference between final and the initial fluorescence intensities, Ct is the total FGF protein concentration, KD is the thermodynamic dissociation constant, and Lt is the total heparin concentration. […] However, in the fluorescence titration experiments the titration curves shown in Figure 1 cannot be fitted directly using equation 1. […]

Kd [1]: 228 ± 23 nM | Kd [2]: 2700 ± 600 nM | Kd [3]: 130 ± 27 nM | Kd [4]: 3 ± 1 nM | Kd [5]: 14 ± 7 nM | Kd [6]: 178 ± 44 nM | Kd [7]: 12 ± 0.1 nM | Kd [8]: 4 ± 2 nM
Substance: β-cyclodextran tetradecasulfate [BCDS]
